Test results as given in PMC3090445 (Journal of the American Chemical Society, 2008).

Legend:
[1] = target: HDAC1 (Homo sapiens, UniProt Q13547); type: biochemical
[2] = system: transformed and non-transformed human- and murine-derived cell lines; settings: transformed vs non-transformed human- and murine-derived cell lines; cited from earlier work

Chain of HDAC1 (Q13547 whole entry): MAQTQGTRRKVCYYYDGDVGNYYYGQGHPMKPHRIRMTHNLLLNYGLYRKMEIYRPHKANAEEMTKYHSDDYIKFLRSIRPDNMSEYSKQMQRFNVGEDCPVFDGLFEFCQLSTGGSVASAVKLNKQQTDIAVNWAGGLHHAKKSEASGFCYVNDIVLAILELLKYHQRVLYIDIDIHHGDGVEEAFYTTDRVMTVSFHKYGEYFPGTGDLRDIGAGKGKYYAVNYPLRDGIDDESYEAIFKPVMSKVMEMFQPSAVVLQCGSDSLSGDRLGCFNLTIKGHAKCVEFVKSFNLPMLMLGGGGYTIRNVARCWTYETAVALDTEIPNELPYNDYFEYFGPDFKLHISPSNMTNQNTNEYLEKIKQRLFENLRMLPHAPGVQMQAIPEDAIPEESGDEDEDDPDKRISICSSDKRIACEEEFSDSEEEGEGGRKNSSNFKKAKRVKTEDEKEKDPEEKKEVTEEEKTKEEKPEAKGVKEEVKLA

Ki [1] | SMILES | differential growth inhibition [2]
0.12 nM | C/C=C1\NC(=O)[C@H]2CSSCC/C=C/[C@H](CC(=O)N[C@H](C(C)C)C(=O)N2)OC(=O)[C@H](C(C)C)NC1=O [FK228] | –
– | CCCCCCCC(=O)SCC/C=C/[C@@H]1CC(=O)NCc2nc(cs2)C2=N[C@@](C)(CS2)C(=O)N[C@@H](C(C)C)C(=O)O1 [largazole (1), largazole] | two- to ten-fold
